Drawing on patent US9776972B2, “Pyrazole derivatives as arginine methyltransferase inhibitors and uses thereof” (priority 2013, dated 2017), this text covers IC50 for 65 compounds.

Structures are written as SMILES.

In one assay the target is T1, human PRMT6 (Homo sapiens, UniProt Q96LA8).
T1 construct: Flag-PRMT6-His; made in house; host or cells: HEK 293F cells (BacMam baculovirus)
The assay can be described thus: PRMT6 Biochemical Assay (3H-SAM Flashplate, peptide substrate). The following applies: Biochemical IC50 PRMT6, single experiment or average of multiple experiments. The gist of the method:
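Methylation of a biotin-tagged H4 (36-50) peptide by ³H-SAM was quantified by streptavidin Flashplate capture and scintillation counts (dpm/cpm). Before SAM/peptide addition, Flag-PRMT6-His was preincubated with compound for 30 min at room temperature in Bicine buffer, pH 7.6.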

Another assay concerns the target human PRMT8 (Homo sapiens, UniProt Q9NR22). The assay can be described thus: PRMT8 Biochemical Assay (3H-SAM Flashplate, peptide substrate). The following applies: single experiment or average of multiple experiments. The gist of the method: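 Methylation of a biotin-tagged histone H4 peptide (residues 31-45) by recombinant PRMT8 was measured as 3H transfer from 3H-SAM, after a 30 min room-temperature compound preincubation in Bicine buffer pH 7.6. Reactions were quenched with unlabelled SAM to 400 uM final, then bound counts were read by streptavidin Flashplate. IC50 came from a Hill fit of % inhibition relative to max and SAH min controls.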

T1 sequence (Q96LA8 with tags, fused parts or gaps): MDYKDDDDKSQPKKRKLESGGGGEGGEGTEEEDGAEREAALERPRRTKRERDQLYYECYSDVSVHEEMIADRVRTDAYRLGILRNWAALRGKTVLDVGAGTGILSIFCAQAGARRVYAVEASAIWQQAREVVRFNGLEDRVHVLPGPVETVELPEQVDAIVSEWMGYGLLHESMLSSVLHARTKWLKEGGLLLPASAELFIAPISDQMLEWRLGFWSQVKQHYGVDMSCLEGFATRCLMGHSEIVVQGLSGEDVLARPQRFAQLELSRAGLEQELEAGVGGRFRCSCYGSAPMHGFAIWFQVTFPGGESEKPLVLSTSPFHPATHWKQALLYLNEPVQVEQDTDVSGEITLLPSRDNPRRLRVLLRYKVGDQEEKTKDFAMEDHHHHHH
human PRMT8, sequence (Q9NR22 whole entry, the tested form may be a part): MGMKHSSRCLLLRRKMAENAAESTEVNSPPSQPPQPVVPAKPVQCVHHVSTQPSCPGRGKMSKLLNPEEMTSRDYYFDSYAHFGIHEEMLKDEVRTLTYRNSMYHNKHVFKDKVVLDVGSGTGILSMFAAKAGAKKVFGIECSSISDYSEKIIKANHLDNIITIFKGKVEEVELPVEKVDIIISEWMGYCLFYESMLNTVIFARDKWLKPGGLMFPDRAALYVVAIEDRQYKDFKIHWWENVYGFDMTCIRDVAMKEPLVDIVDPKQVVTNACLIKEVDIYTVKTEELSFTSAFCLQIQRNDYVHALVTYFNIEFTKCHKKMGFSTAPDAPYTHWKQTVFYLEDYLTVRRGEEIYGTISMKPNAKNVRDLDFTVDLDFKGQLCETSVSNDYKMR

The IC50 is the midpoint of a concentration-inhibition curve. Turning to `CNCCN(C)Cc1cn(C2CC2)nc1-c1ccc(F)cc1` [Compound 13], on human PRMT6, the IC50 turned out to be 271 nM.
Take `CNCCN(C)Cc1cnn(C2CC2)c1-c1ccc(F)cc1` [Compound 14]: the figures for the IC50 on human PRMT8 and against human PRMT6 were 1380 nM and 27.7 nM, respectively.
In the case of `CNCCN(C)Cc1cn(C(C)C)nc1-c1ccc(F)cc1` [Compound 15], at human PRMT6, the IC50 was determined as 526 nM.
In the case of `CNCCN(C)Cc1cnn(C(C)C)c1-c1ccc(F)cc1` [Compound 16], on human PRMT6, it took 57.9 nM to reach half-maximal inhibition (IC50).
In the case of `CNCCN(C)Cc1cn[nH]c1-c1ccc(C#N)cc1` [Compound 17], the IC50 against human PRMT8 was found to be 89.1 nM; at human PRMT6, 12.8 nM.
For `CNCCN(C)Cc1cn[nH]c1-c1cc(F)cc(F)c1` [Compound 18] the same measures were 483 nM and 13.6 nM.
For `CN(CCN)Cc1n[nH]cc1-c1ccc(C2CCOCC2)cc1` [Compound 145] the same measures were 167 nM and 60 nM.
As to `COc1ccc(-c2n[nH]cc2CN(C)CCN)c(Cl)c1` [Compound 146], the IC50 against human PRMT8 stood at 1120 nM; at human PRMT6 it was 12.5 nM.
`CN(CCN)Cc1c[nH]nc1-c1cc(C#N)ccc1Cl` [Compound 147] came in with an IC50 on human PRMT6 of 53.6 nM.
For `CN(CCN)Cc1c[nH]nc1-c1ccc(C(F)(F)F)cc1F` [Compound 148], the IC50 was found to be 809 nM on human PRMT8 and 68.2 nM on human PRMT6.
For `CN(CCN)Cc1c[nH]nc1-c1cccc(N(C)C)c1` [Compound 149] the same measures were 910 nM and 62.5 nM.
As for `CCOC(=O)c1cccc(-c2n[nH]cc2CN(C)CCN)c1` [Compound 150], the IC50 on human PRMT8 worked out at 566 nM; against human PRMT6 it was 29 nM.
On to `COc1cc(F)ccc1-c1n[nH]cc1CN(C)CCN` [Compound 151], for which the IC50 is 1370 nM at human PRMT8 and 112 nM at human PRMT6.
Regarding `Cc1cc(F)ccc1-c1n[nH]cc1CN(C)CCN` [Compound 152], the figures for the IC50 on human PRMT8 and at human PRMT6 were 983 nM and 22.7 nM, respectively.
For the compound `COc1ccc(-c2n[nH]cc2CN(C)CCN)cc1` [Compound 153], the values for the IC50 on human PRMT8 and at human PRMT6 were 132 nM and 11.6 nM, respectively.
For `COc1ccc(-c2n[nH]cc2CN(C)CCN)c(C(F)(F)F)c1` [Compound 154], the IC50 against human PRMT8 stood at 6170 nM; against human PRMT6, 375 nM.
Consider `COc1ccc(-c2n[nH]cc2CN(C)CCN)c(C)c1` [Compound 155], for which the IC50 is 977 nM against human PRMT8 and 22.3 nM at human PRMT6.
The corresponding values for `CN(CCN)Cc1c[nH]nc1-c1cc(Cl)ccc1F` [Compound 156] are 1710 nM and 43.1 nM.
For `COc1ccc(Cl)cc1-c1n[nH]cc1CN(C)CCN` [Compound 157] the same measures were 5820 nM and 504 nM.
In turn, `Cc1ccc(C#N)cc1-c1n[nH]cc1CN(C)CCN` [Compound 158] showed an IC50 at human PRMT6 of 115 nM.
For the compound `Cc1ccc(F)cc1-c1n[nH]cc1CN(C)CCN` [Compound 159], the values for the IC50 against human PRMT8 and on human PRMT6 were 879 nM and 27.3 nM, respectively.
Turning to `COc1ccc(F)cc1-c1n[nH]cc1CN(C)CCN` [Compound 160], the figures for the IC50 against human PRMT8 and against human PRMT6 were 3010 nM and 191 nM, respectively.
As for `Cc1ccccc1-c1n[nH]cc1CN(C)CCN` [Compound 161], the IC50 is 2100 nM against human PRMT8 and 96.5 nM against human PRMT6.
`Cc1ccc(-c2n[nH]cc2CN(C)CCN)cc1` [Compound 162]: the IC50 is 273 nM at human PRMT8 and 7.71 nM at human PRMT6.
For the compound `CCN(C)C(=O)c1ccc(-c2n[nH]cc2CN(C)CCN)cc1` [Compound 163], the IC50 is 1430 nM against human PRMT8 and 62.6 nM against human PRMT6.
Consider `CC(C)CN(C)C(=O)c1ccc(-c2n[nH]cc2CN(C)CCN)cc1` [Compound 164], for which the IC50 at human PRMT8 turned out to be 2180 nM; at human PRMT6 it was 41.8 nM.
With `CCOc1ccc(-c2n[nH]cc2CN(C)CCN)cc1` [Compound 166], the figures for the IC50 against human PRMT8 and against human PRMT6 were 191 nM and 15.6 nM, respectively.
On to `COCCOc1ccc(-c2n[nH]cc2CN(C)CCN)cc1` [Compound 167], for which the values for the IC50 against human PRMT8 and against human PRMT6 were 284 nM and 17.4 nM, respectively.
`Cc1[nH]nc(-c2ccc(F)cc2)c1CN(C)CCN` [Compound 169]: the figures for the IC50 against human PRMT8 and against human PRMT6 were 2990 nM and 85 nM, respectively.
Consider `CC(C)Cc1ccc(-c2c[nH]nc2CN(C)CCN)cc1` [Compound 170], for which the figures for the IC50 against human PRMT8 and on human PRMT6 were 160 nM and 59.3 nM, respectively.
The corresponding values for `NCCN(CCO)Cc1c[nH]nc1-c1ccc(F)cc1` [Compound 171] are 2630 nM and 2420 nM.
For `CN(CCN)Cc1c[nH]nc1-c1ccc(OCCN2CCOCC2)cc1` [Compound 172] the same measures were 3260 nM and 26.4 nM.
Regarding `CN(CCN)Cc1c[nH]nc1-c1ccc2c(c1)NC(=O)CO2` [Compound 173], the IC50 came to 3080 nM at human PRMT8 and 14.9 nM against human PRMT6.
As to `CNCCN(C)Cc1c[nH]nc1-c1ccc(C(F)(F)F)cc1` [Compound 174], the results for the IC50 at human PRMT8 and at human PRMT6 were 228 nM and 15 nM, respectively.
`CNCCN(C)Cc1c[nH]nc1-c1ccc(OC2CCOCC2)cc1` [Compound 175] displayed an IC50 against human PRMT6 of 12.5 nM.
Same read-out and setting: as for `CC(C)Oc1ccc(-c2nn(C)cc2CN(C)CCN)cc1` [Compound 176], the figure is 67.3 nM.
Turning to `CC(C)Oc1ccc(-c2c(CN(C)CCN)cnn2C)cc1` [Compound 177], on human PRMT6, half-maximal inhibition (IC50) required 34.2 nM.
Still for that read-out and setting: as for `CN(CCN)Cc1c[nH]nc1-c1ccc(OC2CCOCC2)cc1` [Compound 178], the figure is 7.22 nM; as for `COCCCOc1ccc(-c2n[nH]cc2CN(C)CCN)cc1` [Compound 179], 13.4 nM.
`CNCCN(C)Cc1c[nH]nc1-c1ccc(OC(C)C)c(F)c1` [Compound 181] displayed an IC50 at human PRMT6 of 17.3 nM.
For the compound `CNCCN(C)Cc1c[nH]nc1-c1ccc(Cl)c(F)c1` [Compound 182], the results for the IC50 against human PRMT8 and at human PRMT6 were 271 nM and 5.48 nM, respectively.
Take `CN(CCN(C)C1CC1)Cc1c[nH]nc1-c1ccc(C#N)cc1` [Compound 184]: the 50% inhibitory concentration (IC50) on human PRMT8 turned out to be 3030 nM; against human PRMT6, 2380 nM.
The corresponding values for `CN(CCN1CCC1)Cc1c[nH]nc1-c1ccc(C#N)cc1` [Compound 185] are 4370 nM and 407 nM.
As to `CC(C)Oc1cccc(-c2n[nH]cc2CN(C)CCN)c1` [Compound 187], the IC50 is 1700 nM on human PRMT8 and 77.6 nM against human PRMT6.
Regarding `CC(C)Oc1cc(-c2n[nH]cc2CN(C)CCN)ccc1F` [Compound 188], the IC50 amounted to 2890 nM at human PRMT8 and 37.4 nM at human PRMT6.
Take `CCC(=O)N1CCN(c2ccc(-c3n[nH]cc3CN(C)CCN)cc2)CC1` [Compound 189]: the IC50 is 2990 nM on human PRMT8 and 29.5 nM at human PRMT6.
Take `CC(C)CN1C(=O)COc2ccc(-c3n[nH]cc3CN(C)CCN)cc21` [Compound 191]: the IC50 turned out to be 4110 nM at human PRMT8 and 435 nM against human PRMT6.
On to `CN(CCN)Cc1c[nH]nc1-c1ccc2c(c1)OCC(=O)N2C` [Compound 192], for which the values for the IC50 against human PRMT8 and at human PRMT6 were 2010 nM and 34.6 nM, respectively.
Regarding `CC(C)CN1C(=O)COc2cc(-c3n[nH]cc3CN(C)CCN)ccc21` [Compound 193], the IC50 against human PRMT8 is 845 nM; on human PRMT6, 247 nM.
With `CN(CCN)Cc1c[nH]nc1-c1ccc(OCCO)cc1` [Compound 194], the IC50 at human PRMT8 turned out to be 374 nM; against human PRMT6 it was 15.3 nM.
As for `CN(CCN)Cc1c[nH]nc1-c1ccc(OCCCO)cc1` [Compound 195], the IC50 on human PRMT8 amounted to 402 nM; against human PRMT6, 9.24 nM.
As to `CN(CCN)Cc1c[nH]nc1-c1ccc2c(c1)N(C)C(=O)CO2` [Compound 196], the IC50 on human PRMT8 turned out to be 2580 nM; on human PRMT6 it was 28.7 nM.
As to `CCNC(=O)c1cccc(-c2n[nH]cc2CN(C)CCN)c1` [Compound 197], the IC50 against human PRMT8 was found to be 2100 nM; against human PRMT6 it was 67.2 nM.
On to `CCN(C)C(=O)c1cccc(-c2n[nH]cc2CN(C)CCN)c1` [Compound 198], for which the IC50 against human PRMT6 was found to be 322 nM.
`Cc1cc(-c2n[nH]cc2CN(C)CCN)cc(C)c1OC(C)C` [Compound 199, N^1-((3-(4-isopropoxy-3,5-dimethylphenyl)-1H-pyrazol-4-yl)methyl)-N^1-methylethane-1,2-diamine]: the figures for the half-inhibitory concentration (IC50) on human PRMT8 and against human PRMT6 were 459 nM and 103 nM, respectively.
As to `CN(CCN)Cc1c[nH]nc1-c1ccc(Oc2ccccc2)c(C#N)c1` [Compound 202], the IC50 is 187 nM on human PRMT8 and 2.9 nM against human PRMT6.
Consider `CN(CCN)Cc1n[nH]cc1-c1ccc(Oc2ccccc2)cc1` [Compound 203], for which the IC50 against human PRMT8 came to 185 nM; against human PRMT6 it was 2.42 nM.
On to `CNCCN(C)Cc1n[nH]cc1-c1ccc(Oc2ccccc2)cc1` [Compound 204], for which the figures for the IC50 against human PRMT8 and against human PRMT6 were 69.3 nM and 1.14 nM, respectively.
Regarding `CCn1cc(CN(C)CCNC)c(-c2ccc(OC(C)C)cc2)n1` [Compound 213], it took 82.1 nM to reach half-maximal inhibition against human PRMT6 (IC50).
Same read-out and setting: for `CNCCN(C)Cc1cn(C2CCCC2)nc1-c1ccc(OC(C)C)cc1` [Compound 214] the value was 124 nM; for `CNCCN(C)Cc1cn(C2CCOC2)nc1-c1ccc(OC(C)C)cc1` (stereo not drawn) [Compound 215], 323 nM; for `CNCCN(C)Cc1cnn(C2CCOC2)c1-c1ccc(OC(C)C)cc1` (stereo not drawn) [Compound 216], 27.7 nM.
In turn, `CNCCN(C)Cc1cn(Cc2ccccc2)nc1-c1ccc(OC(C)C)cc1` [Compound 217] registered an IC50 against human PRMT6 of 42.1 nM.
In the case of `C=CCn1cc(CN(C)CCNC)c(-c2ccc(OC(C)C)cc2)n1` [Compound 218], on human PRMT6, half-maximal inhibition (IC50) was put at 132 nM.
`C=CCn1ncc(CN(C)CCNC)c1-c1ccc(OC(C)C)cc1` [Compound 219]: on human PRMT6, the IC50 was 30.8 nM.
